How the values were obtained:
[1] = biological target: T1, Voltage-gated L-type calcium channel (Homo sapiens, UniProt Q13936+Q13698+Q01668+O60840); experiment: Binding affinity to verapamil sensitive calcium channel L type at 10 uM; type: protein assay
[2] = biological target: 3',5'-cyclic-AMP phosphodiesterase 4A (Homo sapiens, UniProt P27815); experiment: Inhibition of PDE4A
[3] = biological target: T2, 3',5'-cyclic-AMP phosphodiesterase 4D (Homo sapiens, UniProt Q08499); conditions: Blood
Description: Inhibition of release of Eosinophil derived neurotoxin in human whole blood

[4] = biological target: Vasopressin V1 receptor (Homo sapiens) (UniProt P37288+P47901); experiment: Binding affinity to vasopressin V1 receptor at 10 uM; type: protein assay
[5] = biological target: Adrenergic receptor alpha-2 (Homo sapiens) (UniProt P08913+P18825+P18089); experiment: Binding affinity to Adrenergic alpha-2 receptor at 10 uM; type: protein assay
[6] = biological target: D(3) dopamine receptor (Homo sapiens) (UniProt P35462); experiment: Binding affinity to dopamine D3 receptor at 10 uM
[7] = Binding affinity to nicotinic neuronal receptor at 10 uM
[8] = biological target: B1 bradykinin receptor (Homo sapiens) (UniProt P46663); experiment: Binding affinity to bradykinin B1 receptor at 10 uM
[9] = biological target: Thyroid hormone receptor (Homo sapiens) (UniProt P10827+P10828); experiment: Binding affinity to thyroid hormone receptor at 10 uM; type: protein-complex assay
[10] = biological target: Muscarinic acetylcholine receptor M1 (Homo sapiens) (UniProt P11229); experiment: Binding affinity to Muscarinic M1 receptor at 10 uM
[11] = biological target: Muscarinic acetylcholine receptor M2 (Homo sapiens) (UniProt P08172); experiment: Binding affinity to Muscarinic M2 receptor at 10 uM
[12] = biological target: Melanocortin receptor 4 (Homo sapiens) (UniProt P32245); experiment: Binding affinity to MCR4 at 10 uM
[13] = Binding affinity to GABA receptor at 10 uM
[14] = biological target: High affinity cGMP-specific 3',5'-cyclic phosphodiesterase 9A (Homo sapiens, UniProt O76083); experiment: Inhibition of PDE9
[15] = biological target: Adenosine receptor A1 (Homo sapiens) (UniProt P30542); experiment: Binding affinity to adenosine A1 receptor at 10 uM
[16] = biological target: Adrenergic receptor alpha-1 (Homo sapiens) (UniProt P35348+P25100+P35368); experiment: Binding affinity to Adrenergic alpha-1 receptor at 10 uM; type: protein assay
[17] = biological target: Sodium-dependent serotonin transporter (Homo sapiens) (UniProt P31645); experiment: Binding affinity to serotonin transporter at 10 uM
[18] = biological target: Platelet-activating factor receptor (Homo sapiens) (UniProt P25105); experiment: Binding affinity to platelet activating factor at 10 uM
[19] = biological target: cAMP and cAMP-inhibited cGMP 3',5'-cyclic phosphodiesterase 10A (Homo sapiens, UniProt Q9Y233); experiment: Inhibition of PDE10
[20] = biological target: T3, 3',5'-cyclic-AMP phosphodiesterase 4B (Homo sapiens, UniProt Q07343); experiment: Inhibition of release of TNF alpha in human whole blood; type: functional, tissue-based
[21] = biological target: Histamine H3 receptor (Homo sapiens) (UniProt Q9Y5N1); experiment: Binding affinity to Histamine H3 receptor at 10 uM
[22] = biological target: 3',5'-cyclic-AMP phosphodiesterase 4C (Homo sapiens, UniProt Q08493); experiment: Inhibition of PDE4C
[23] = biological target: B2 bradykinin receptor (Homo sapiens) (UniProt P30411); experiment: Binding affinity to bradykinin B2 receptor at 10 uM
[24] = biological target: Glucocorticoid receptor (Homo sapiens) (UniProt P04150); experiment: Binding affinity to glucocorticoid receptor at 10 uM
[25] = biological target: T2, 3',5'-cyclic-AMP phosphodiesterase 4D; experiment: Inhibition of release of LTE4 in human whole blood; type: functional, tissue-based
[26] = biological target: Glutamate receptor ionotropic AMPA (Homo sapiens) (UniProt P48058+P42263+P42262+P42261); experiment: Binding affinity to AMPA receptor at 10 uM; type: protein-complex assay
[27] = biological target: cGMP-specific 3',5'-cyclic phosphodiesterase (Homo sapiens, UniProt O76074); experiment: Inhibition of PDE5
[28] = biological target: Type-1 angiotensin II receptor (Homo sapiens) (UniProt P30556); experiment: Binding affinity to angiotensin II receptor type 1 at 10 uM
[29] = biological target: T1, Voltage-gated L-type calcium channel; experiment: Binding affinity to dilitiazem sensitive calcium channel L type at 10 uM; type: protein assay
[30] = biological target: Adenosine receptor A3 (Homo sapiens) (UniProt P0DMS8); experiment: Binding affinity to adenosine A3 receptor at 10 uM
[31] = biological target: Type-2 angiotensin II receptor (Homo sapiens) (UniProt P50052); experiment: Binding affinity to angiotensin II receptor type 2 at 10 uM
[32] = biological target: 5-hydroxytryptamine receptor 1A (Homo sapiens) (UniProt P08908); experiment: Binding affinity to serotonin 5HT1A receptor at 10 uM
[33] = biological target: Kappa-type opioid receptor (Homo sapiens) (UniProt P41145); experiment: Binding affinity to opiate kappa receptor at 10 uM
[34] = biological target: Acetylcholine receptor; alpha1/beta1/delta/gamma (Homo sapiens) (UniProt P02708+P07510+P11230+Q07001); experiment: Binding affinity to nicotinic muscle receptor at 10 uM; type: protein-complex assay
[35] = biological target: Phosphodiesterase 3 (Homo sapiens, UniProt Q14432+Q13370); experiment: Inhibition of PDE3; type: protein assay
[36] = biological target: Voltage-dependent N-type calcium channel subunit alpha-1B (Homo sapiens) (UniProt Q00975); experiment: Binding affinity to calcium channel N type at 10 uM
[37] = tested on: Cynomolgus monkey; experiment: Inhibition of eosinophil infiltration in bronchoalveolar lavage fluid from cynomolgus monkeys exposed to Ascaris suum.; type: functional, Macaca fascicularis, Lung
[38] = biological target: High affinity cAMP-specific and IBMX-insensitive 3',5'-cyclic phosphodiesterase 8B (Homo sapiens, UniProt O95263); experiment: Inhibition of PDE8B
[39] = biological target: Muscarinic acetylcholine receptor M3 (Homo sapiens) (UniProt P20309); experiment: Binding affinity to Muscarinic M3 receptor at 10 uM
[40] = biological target: Histamine H1 receptor (Homo sapiens) (UniProt P35367); experiment: Binding affinity to Histamine H1 receptor at 10 uM
[41] = Binding affinity to GABA transporter at 10 uM
[42] = biological target: Glutamate [NMDA] receptor (Homo sapiens) (UniProt Q05586+Q12879+Q13224+O15399+O60391+Q14957+Q8TCU5); experiment: Binding affinity to NMDA receptor at 10 uM; type: protein-complex assay
[43] = biological target: T2, 3',5'-cyclic-AMP phosphodiesterase 4D; experiment: cAMP elevation in U937 cells; type: functional, cell-based, U-937
[44] = biological target: T1, Voltage-gated L-type calcium channel; experiment: Binding affinity to DHP sensitive calcium channel L type at 10 uM; type: protein assay
[45] = biological target: Vasopressin V2 receptor (Homo sapiens) (UniProt P30518); experiment: Binding affinity to vasopressin V2 receptor at 10 uM
[46] = biological target: cGMP-dependent 3',5'-cyclic phosphodiesterase (Homo sapiens, UniProt O00408); experiment: Inhibition of PDE2
[47] = biological target: Histamine H2 receptor (Homo sapiens) (UniProt P25021); experiment: Binding affinity to Histamine H2 receptor at 10 uM
[48] = biological target: Sodium-dependent noradrenaline transporter (Homo sapiens) (UniProt P23975); experiment: Binding affinity to norepinephrine transporter at 10 uM
[49] = biological target: Beta-2 adrenergic receptor (Homo sapiens) (UniProt P07550); experiment: Binding affinity to adrenergic beta2 receptor at 10 uM
[50] = biological target: High affinity choline transporter 1 (Homo sapiens) (UniProt Q9GZV3); experiment: Binding affinity to choline transporter at 10 uM
[51] = biological target: Delta-type opioid receptor (Homo sapiens) (UniProt P41143); experiment: Binding affinity to opiate delta receptor at 10 uM
[52] = biological target: 5-hydroxytryptamine receptor 4 (Homo sapiens) (UniProt Q13639); experiment: Binding affinity to serotonin 5HT4 receptor at 10 uM
[53] = biological target: High affinity cAMP-specific and IBMX-insensitive 3',5'-cyclic phosphodiesterase 8A (Homo sapiens, UniProt O60658); experiment: Inhibition of PDE8A
[54] = biological target: D(1A) dopamine receptor (Homo sapiens) (UniProt P21728); experiment: Binding affinity to dopamine D1 receptor at 10 uM
[55] = biological target: Adenosine receptor A2a (Homo sapiens) (UniProt P29274); experiment: Binding affinity to adenosine A2A receptor at 10 uM
[56] = biological target: Beta-1 adrenergic receptor (Homo sapiens) (UniProt P08588); experiment: Binding affinity to adrenergic beta-1 receptor at 10 uM
[57] = biological target: Sodium-dependent dopamine transporter (Homo sapiens) (UniProt Q01959); experiment: Binding affinity to dopamine transporter at 10 uM
[58] = biological target: Serotonin 3 (5-HT3) receptor (Homo sapiens) (UniProt P46098+A5X5Y0+O95264+Q70Z44+Q8WXA8); experiment: Binding affinity to serotonin 5HT3 receptor at 10 uM; type: protein-complex assay
[59] = biological target: T3, 3',5'-cyclic-AMP phosphodiesterase 4B; experiment: Inhibition of PDE4B
[60] = biological target: D(4) dopamine receptor (Homo sapiens) (UniProt P21917); experiment: Binding affinity to dopamine D4 receptor at 10 uM
[61] = biological target: D(2) dopamine receptor (Homo sapiens) (UniProt P14416); experiment: Binding affinity to dopamine D2 receptor at 10 uM
[62] = biological target: 5-hydroxytryptamine receptor 7 (Homo sapiens) (UniProt P34969); experiment: Binding affinity to serotonin 5HT7 receptor at 10 uM
[63] = biological target: Mu-type opioid receptor (Homo sapiens) (UniProt P35372); experiment: Binding affinity to opiate mu receptor at 10 uM
[64] = biological target: Glutamate receptor ionotropic kainate (Homo sapiens) (UniProt P39086+Q16478+Q16099+Q13002+Q13003); experiment: Binding affinity to kainate receptor at 10 uM; type: protein-complex assay
[65] = biological target: T2, 3',5'-cyclic-AMP phosphodiesterase 4D; experiment: Inhibition of PDE4D
[66] = biological target: Muscarinic acetylcholine receptor M4 (Homo sapiens) (UniProt P08173); experiment: Binding affinity to Muscarinic M4 receptor at 10 uM
[67] = biological target: Substance-P receptor (Homo sapiens) (UniProt P25103); experiment: Binding affinity to neurokinin K1 receptor at 10 uM
[68] = biological target: Dual 3',5'-cyclic-AMP and -GMP phosphodiesterase 11A (Homo sapiens, UniProt Q9HCR9); experiment: Inhibition of PDE11

T2 sequence (Q08499 whole entry): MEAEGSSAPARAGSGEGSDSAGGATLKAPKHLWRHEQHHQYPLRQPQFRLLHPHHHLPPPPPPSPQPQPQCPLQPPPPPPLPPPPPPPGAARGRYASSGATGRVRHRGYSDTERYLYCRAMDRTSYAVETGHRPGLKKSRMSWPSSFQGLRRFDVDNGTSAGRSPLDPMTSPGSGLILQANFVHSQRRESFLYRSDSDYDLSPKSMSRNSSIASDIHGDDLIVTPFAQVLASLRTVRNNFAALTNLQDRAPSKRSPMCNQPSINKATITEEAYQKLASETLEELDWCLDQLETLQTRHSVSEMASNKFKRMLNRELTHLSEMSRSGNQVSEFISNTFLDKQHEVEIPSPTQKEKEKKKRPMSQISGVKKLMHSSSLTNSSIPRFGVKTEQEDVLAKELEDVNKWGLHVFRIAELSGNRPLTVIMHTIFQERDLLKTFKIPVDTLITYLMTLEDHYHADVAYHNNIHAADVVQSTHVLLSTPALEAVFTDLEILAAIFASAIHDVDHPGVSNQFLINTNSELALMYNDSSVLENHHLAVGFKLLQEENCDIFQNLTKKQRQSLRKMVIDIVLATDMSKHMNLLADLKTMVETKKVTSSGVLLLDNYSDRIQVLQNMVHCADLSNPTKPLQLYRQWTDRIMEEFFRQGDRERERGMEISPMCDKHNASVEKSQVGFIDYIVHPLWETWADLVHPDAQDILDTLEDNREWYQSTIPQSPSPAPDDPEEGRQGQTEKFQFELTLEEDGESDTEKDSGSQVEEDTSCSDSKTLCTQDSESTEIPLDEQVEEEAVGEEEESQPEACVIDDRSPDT
Sequence of High affinity cGMP-specific 3',5'-cyclic phosphodiesterase 9A (O76083 whole entry): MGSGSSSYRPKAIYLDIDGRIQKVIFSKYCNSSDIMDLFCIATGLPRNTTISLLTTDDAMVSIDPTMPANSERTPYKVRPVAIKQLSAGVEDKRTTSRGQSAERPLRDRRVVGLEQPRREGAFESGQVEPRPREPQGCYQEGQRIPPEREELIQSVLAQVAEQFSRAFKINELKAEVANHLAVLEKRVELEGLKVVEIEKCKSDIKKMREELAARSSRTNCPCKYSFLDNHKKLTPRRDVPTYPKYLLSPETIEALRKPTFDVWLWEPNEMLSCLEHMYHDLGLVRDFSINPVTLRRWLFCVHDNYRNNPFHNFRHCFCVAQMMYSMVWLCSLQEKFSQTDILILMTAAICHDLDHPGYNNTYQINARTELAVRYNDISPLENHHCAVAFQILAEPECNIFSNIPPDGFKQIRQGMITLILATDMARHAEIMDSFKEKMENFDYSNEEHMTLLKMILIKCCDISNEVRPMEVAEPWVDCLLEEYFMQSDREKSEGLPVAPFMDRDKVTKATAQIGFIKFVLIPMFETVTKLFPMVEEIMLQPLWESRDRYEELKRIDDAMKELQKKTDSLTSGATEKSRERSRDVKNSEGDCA
Sequence of High affinity cAMP-specific and IBMX-insensitive 3',5'-cyclic phosphodiesterase 8A (O60658 whole entry): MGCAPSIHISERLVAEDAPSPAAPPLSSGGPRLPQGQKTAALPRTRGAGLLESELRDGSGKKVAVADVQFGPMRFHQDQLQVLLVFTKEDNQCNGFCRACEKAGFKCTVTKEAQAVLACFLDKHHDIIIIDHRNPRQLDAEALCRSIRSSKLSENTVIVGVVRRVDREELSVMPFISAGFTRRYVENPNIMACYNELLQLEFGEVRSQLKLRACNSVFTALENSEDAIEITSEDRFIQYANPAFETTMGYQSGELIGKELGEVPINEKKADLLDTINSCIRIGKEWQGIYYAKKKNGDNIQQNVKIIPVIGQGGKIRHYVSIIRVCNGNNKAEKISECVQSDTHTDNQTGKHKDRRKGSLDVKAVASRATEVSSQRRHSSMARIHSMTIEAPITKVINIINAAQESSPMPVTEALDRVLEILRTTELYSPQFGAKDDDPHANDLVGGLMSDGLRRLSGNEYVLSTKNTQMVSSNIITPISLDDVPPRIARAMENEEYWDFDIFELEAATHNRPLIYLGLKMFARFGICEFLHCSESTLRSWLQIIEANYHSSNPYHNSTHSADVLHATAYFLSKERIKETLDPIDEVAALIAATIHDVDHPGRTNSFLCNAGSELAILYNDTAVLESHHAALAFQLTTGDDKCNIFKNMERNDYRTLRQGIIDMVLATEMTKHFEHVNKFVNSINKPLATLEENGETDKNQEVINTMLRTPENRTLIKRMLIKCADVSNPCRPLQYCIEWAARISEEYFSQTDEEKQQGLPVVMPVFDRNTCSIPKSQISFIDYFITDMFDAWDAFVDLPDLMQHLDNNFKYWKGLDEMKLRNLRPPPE
T3 sequence (Q07343 whole entry): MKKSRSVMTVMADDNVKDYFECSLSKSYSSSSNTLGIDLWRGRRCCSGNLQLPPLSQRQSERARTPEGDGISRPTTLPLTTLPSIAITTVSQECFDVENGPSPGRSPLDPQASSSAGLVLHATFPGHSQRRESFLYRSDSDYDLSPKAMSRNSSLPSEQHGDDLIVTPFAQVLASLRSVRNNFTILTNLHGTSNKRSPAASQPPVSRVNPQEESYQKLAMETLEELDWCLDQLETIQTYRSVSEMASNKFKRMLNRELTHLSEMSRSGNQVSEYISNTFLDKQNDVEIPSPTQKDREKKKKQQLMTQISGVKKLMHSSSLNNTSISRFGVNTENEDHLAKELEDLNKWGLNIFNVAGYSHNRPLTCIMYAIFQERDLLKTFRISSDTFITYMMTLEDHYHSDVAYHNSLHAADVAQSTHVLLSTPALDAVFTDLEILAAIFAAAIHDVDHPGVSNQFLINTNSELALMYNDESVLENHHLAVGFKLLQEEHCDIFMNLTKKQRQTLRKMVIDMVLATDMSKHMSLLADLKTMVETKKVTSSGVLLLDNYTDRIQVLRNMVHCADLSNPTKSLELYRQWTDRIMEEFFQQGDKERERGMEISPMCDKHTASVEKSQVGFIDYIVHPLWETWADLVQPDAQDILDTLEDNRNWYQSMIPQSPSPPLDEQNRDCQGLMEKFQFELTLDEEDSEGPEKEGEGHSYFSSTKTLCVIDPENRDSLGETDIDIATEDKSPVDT
Sequence of cGMP-dependent 3',5'-cyclic phosphodiesterase (O00408 whole entry): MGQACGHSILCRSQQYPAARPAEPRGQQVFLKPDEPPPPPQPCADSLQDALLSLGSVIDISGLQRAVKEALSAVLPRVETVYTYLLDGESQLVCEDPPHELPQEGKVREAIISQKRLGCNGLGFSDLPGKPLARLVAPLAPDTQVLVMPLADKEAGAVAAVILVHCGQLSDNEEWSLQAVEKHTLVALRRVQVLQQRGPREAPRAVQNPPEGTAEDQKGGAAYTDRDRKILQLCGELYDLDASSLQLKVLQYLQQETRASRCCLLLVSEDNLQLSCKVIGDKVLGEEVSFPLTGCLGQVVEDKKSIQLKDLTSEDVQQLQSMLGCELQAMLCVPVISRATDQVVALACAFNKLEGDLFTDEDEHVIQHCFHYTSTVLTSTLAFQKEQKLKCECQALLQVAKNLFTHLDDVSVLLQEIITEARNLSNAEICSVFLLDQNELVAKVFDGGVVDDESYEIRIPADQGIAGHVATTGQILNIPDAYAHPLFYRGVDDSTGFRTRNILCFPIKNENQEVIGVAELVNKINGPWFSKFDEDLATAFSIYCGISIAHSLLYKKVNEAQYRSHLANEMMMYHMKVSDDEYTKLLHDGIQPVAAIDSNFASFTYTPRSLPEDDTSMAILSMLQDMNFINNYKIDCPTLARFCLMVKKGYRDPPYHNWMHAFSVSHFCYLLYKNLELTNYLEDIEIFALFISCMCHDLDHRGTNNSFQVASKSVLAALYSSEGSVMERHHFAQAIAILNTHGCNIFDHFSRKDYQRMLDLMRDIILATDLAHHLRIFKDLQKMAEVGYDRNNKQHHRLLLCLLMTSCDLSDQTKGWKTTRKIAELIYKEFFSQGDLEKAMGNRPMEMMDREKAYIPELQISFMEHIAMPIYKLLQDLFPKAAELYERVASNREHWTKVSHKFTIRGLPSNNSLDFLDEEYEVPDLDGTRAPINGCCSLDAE
Sequence of High affinity cAMP-specific and IBMX-insensitive 3',5'-cyclic phosphodiesterase 8B (O95263 whole entry): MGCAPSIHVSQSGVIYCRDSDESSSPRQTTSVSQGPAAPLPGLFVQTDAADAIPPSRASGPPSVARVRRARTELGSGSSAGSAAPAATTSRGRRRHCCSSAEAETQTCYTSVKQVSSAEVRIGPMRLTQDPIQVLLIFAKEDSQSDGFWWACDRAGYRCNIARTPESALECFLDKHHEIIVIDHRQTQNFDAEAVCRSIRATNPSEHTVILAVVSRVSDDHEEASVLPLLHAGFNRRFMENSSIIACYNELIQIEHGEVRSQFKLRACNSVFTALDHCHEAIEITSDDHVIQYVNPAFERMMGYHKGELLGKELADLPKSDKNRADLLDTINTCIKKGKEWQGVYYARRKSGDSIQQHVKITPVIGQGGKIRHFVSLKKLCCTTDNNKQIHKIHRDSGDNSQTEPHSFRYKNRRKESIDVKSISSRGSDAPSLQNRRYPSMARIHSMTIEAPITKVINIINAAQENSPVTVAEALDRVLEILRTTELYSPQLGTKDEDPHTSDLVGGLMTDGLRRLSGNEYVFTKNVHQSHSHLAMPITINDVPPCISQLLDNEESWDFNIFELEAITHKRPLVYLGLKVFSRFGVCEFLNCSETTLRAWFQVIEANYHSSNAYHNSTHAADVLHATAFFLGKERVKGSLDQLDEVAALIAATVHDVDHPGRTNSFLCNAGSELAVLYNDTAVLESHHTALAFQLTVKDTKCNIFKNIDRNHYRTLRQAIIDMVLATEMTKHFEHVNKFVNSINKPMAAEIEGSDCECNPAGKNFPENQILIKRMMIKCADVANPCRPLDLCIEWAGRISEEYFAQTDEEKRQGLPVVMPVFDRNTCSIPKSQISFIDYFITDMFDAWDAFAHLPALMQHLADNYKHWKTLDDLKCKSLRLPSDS

`C[C@@H](NC(=O)c1cccnc1Oc1ccc(F)cc1)c1cccs1` gave an Activity [1] of 0%, an IC50 [2] of 107 nM and an IC30 [3] of 16 nM. The Activity [4] was 26%, the Activity [5] was 0% and the Activity [6] was 0%. For the same compound, the Activity [7] was 3%, the Activity [8] was 0% and the Activity [9] was 8%. It also gave an Activity [10] of 0%, an Activity [11] of 1% and an Activity [12] of 22%. The Activity [13] was 0%, the IC50 [14] was greater than 16000 nM and the Activity [15] was 12%. It also gave an Activity [16] of 0%, an Activity [17] of 0% and an Activity [18] of 23%. It also gave an IC50 [19] greater than 16000 nM, an IC50 [20] of 925 nM and an Activity [21] of 0%. For the same compound, the IC50 [22] was 1380 nM, the Activity [23] was 0% and the Activity [24] was 0%. For the same compound, the IC50 [25] was 2 nM, the Activity [26] was 10% and the IC50 [27] was greater than 16000 nM. For the same compound, the Activity [28] was 3%, the Activity [29] was 6% and the Activity [30] was 31%. For the same compound, the Activity [31] was 0%, the Activity [32] was 5% and the Activity [33] was 21%. For the same compound, the Activity [34] was 22%, the IC50 [35] was greater than 16000 nM and the Activity [36] was 0%. It also gave an Inhibition [37] of 65%, an IC50 [38] greater than 16000 nM and an Activity [39] of 5%. For the same compound, the Activity [40] was 4%, the Activity [41] was 22% and the Activity [42] was 0%. For the same compound, the EC50 [43] was 22 nM, the Activity [44] was 25% and the Activity [45] was 9%. The IC50 [46] was greater than 16000 nM, the Activity [47] was 0% and the Activity [48] was 14%. For the same compound, the Activity [49] was 6%, the Activity [50] was 60% and the Activity [51] was 18%. It also gave an Activity [52] of 14%, an IC50 [53] greater than 16000 nM and an Activity [54] of 27%. It also gave an Activity [55] of 23%, an Activity [56] of 12% and an Activity [57] of 23%. The Activity [58] was 4%, the IC50 [59] was 185 nM and the Activity [60] was 9%. The Activity [61] was 0%, the Activity [62] was 0% and the Activity [63] was 15%. The Activity [64] was 0%, the IC50 [65] was 4 nM and the Activity [66] was 12%. It also gave an Activity [67] of 27%.
For `COc1ccc(C2CNC(=O)C2)cc1OC1CCCC1` (centres undefined) [ROLIPRAM], the IC30 [3] was 283 nM, the IC50 [68] was greater than 16000 nM and the IC50 [14] was greater than 16000 nM. It also gave an IC50 [35] greater than 16000 nM, an IC50 [38] greater than 16000 nM and an IC50 [46] greater than 16000 nM. It also gave an IC50 [53] greater than 16000 nM.

Reference: ChEMBL document CHEMBL1138125, “A new chemical tool for exploring the role of the PDE4D isozyme in leukocyte function” (Bioorg Med Chem Lett, 2006)
